# In patent US12268673B2, “Anhydrous compositions of mTOR inhibitors and methods of use” (PALVELLA THERAPEUTICS, INC., priority 2017, dated 2025):
# Entries after “also recorded” stand apart in the source; their conditions may differ.
# Experiment: Ex vivo skin permeation experiment
# Assay type: in vitro ADME
# Conditions: human donor skin
# Experimental: Human donor skin was placed between upper and lower compartments. The lower compartment was filled with receiver fluid. Various rapamycin compositions were applied on the surface of the skin facing the upper compartment (11 formulations (i.e., O3, NA21, NA22, NA21, NA17, TD201, NA19, NA25, AG14, NA26 and NA24), n=6 replicates, dosage 10 mg/cm^2) and left for 24 hrs. A positive displacement pipette was used to apply the formulation (˜10 mg/cm2) to the plunger of a 1 mL syringe. The formulation (10+/−0.5 mg) was applied to the skin surface and spread over the diffusion area using the plunger. Prior to and after the application the weight of the plunger was recorded, from which the dose per cell was calculated.
# Following the time period, the excess rapamycin compositions were wiped from the skin surface and the skin layers were separated into stratum corneum, epidermis, and dermis. The Stratum corneum was removed from the human skin using a tape stripping procedure. The epidermis was separated from the dermis by dry heating at 60° C. for 2 min. Rapamycin was extracted from each layer by 90:10 v/v ethanol: water solvent mixture, and quantified. The receiver fluid in the lower compartment was also analyzed for the presence of rapamycin.
structure (smiles),measurement,setting,value
CO[C@H]1C[C@@H]2CC[C@@H](C)[C@@](O)(O2)C(=O)C(=O)N2CCCC[C@H]2C(=O)O[C@H]([C@H](C)C[C@@H]2CC[C@@H](O)[C@H](OC)C2)CC(=O)[C@H](C)/C=C(\C)[C@@H](O)[C@@H](OC)C(=O)[C@H](C)C[C@H](C)/C=C/C=C/C=C/1C [rapamycin],"distribution of rapamycin over skin surface, stratum corneum, epidermis and dermis","10 mg/cm^2, 24 hrs",greatest amount of rapamycin was found on the surface of the skin; also recorded: more of the drug residing in the epidermis than either the stratum corneum or dermal layer; also recorded: increase in the amount of rapamycin quantified in both the epidermis and dermis
same,rapamycin in the receiver fluid,"10 mg/cm^2, any time point across the experimental period (24 hrs)",not detected
